# Values quoted from earlier work, collected in article PMC9409351, “Differential Ganglioside and Cholesterol Depletion by Various Cyclodextrin Derivatives and Their Effect on Synaptosomal Glutamate Release” (International Journal of Molecular Sciences, 2022).
# Test system: cell model of GM1 gangliosidosis
# Design: method as in doi:10.1007/s10847-018-0835-8
# Details: immunofluorescence staining; cited from earlier work
substance,measurement,value
(2-hydroxypropyl)-alpha-cyclodextrin [HPACD],Lysosomal accumulation of GM1,reduced lysosomal accumulation of GM1
